Measured values from paper PMC8910697, “Development of VPC-70619, a Small-Molecule N-Myc Inhibitor as a Potential Therapy for Neuroendocrine Prostate Cancer” (International Journal of Molecular Sciences, 2022).
Values belong to the compound of their own block, whether it stands above or below them.

Tested on: N-Myc-Max transcription activity (LNCaP-NMYC cells)
Experiment: Myc transcription assay (Cignal Myc reporter, luciferase) in LNCaP-NMYC cells
Format: cell-based
Parameters: 10 uM corrected / 5uM corrected: unit not given here
Settings: for inhibition at 5 µM / inhibition at 10 µM: 24 h; for inhibition at 5 µM / inhibition at 10 µM / transcription inhibition activity (in words) / transcription inhibition activity at 5 µM (in words): LNCaP-NMYC; for inhibition at 5 µM: read-out: % Transcript Inhibition (5 µM); for inhibition at 10 µM: read-out: % Transcript Inhibition (10 µM); for IC50: Homo sapiens, LNCaP, Table 2, transcriptional assay in LNCaP cells overexpressing N-Myc, read-out: IC50; for transcription inhibition activity (in words): screened at 10 µM and 5 µM; for 5uM corrected / 10 uM corrected: sheet 181_set
Protocol: To determine the optimal substitutions on the free phenyl ring, we used the active scaffold for a second substructure search against the ZINC15 database to identify a set of 181 analogues for further validation (VPC-70617 to -70799, presented in Supplementary Table S1). Compounds were tested for their inhibition of a N-Myc-Max luciferase transcription activity assay at 5 and 10 µM Figure 2a. Herein, we inspected all the proposed substitutions on the scaffold to discern the features required to construct a possible SAR model for inhibitors targeting N-Myc-Max/DBD complex (Figure 2b).
LNCaP-NMYC cells were transfected using TransIT-2020 transfection reagents per the manufacturer’s protocol. Cells were plated at a density of 10,000 cells per well of a 96-well plate. Following 24 h treatment with 5 µM or 10 µM of the compounds, the Myc reporter activity was measured using the Cignal Myc Reporter Assay Kit from Qiagen (#336841) (Hilden, Germany) per the manufacturer’s instructions.

IC50: 8 µM
SMILES: C#Cc1ccc(C(=O)NNc2ccc(C#N)cc2C(F)(F)F)cc1 [compound 70582]
inhibition at 5 µM: 44%
inhibition at 10 µM: 84%

IC50: > 20 µM
SMILES: O=C(NNc1ccc(C(F)(F)F)cc1)c1ccc(C(F)(F)F)cc1 [compound 70583]
inhibition at 5 µM: 8%
inhibition at 10 µM: 28%

IC50: > 20 µM
SMILES: N#Cc1ccc(C(=O)NNc2ccc(C(F)(F)F)cc2)cc1 [compound 70584]
inhibition at 5 µM: 34%
inhibition at 10 µM: 30%

IC50: > 20 µM
SMILES: O=C(NNc1ccccc1F)c1ccc(C(F)(F)F)cc1 [compound 70585]
inhibition at 5 µM: 16%
inhibition at 10 µM: 24%

IC50: > 20 µM
SMILES: N#Cc1ccc(NNC(=O)c2ccc(C(F)(F)F)cc2)cc1 [compound 70586]
inhibition at 5 µM: 28%
inhibition at 10 µM: 34%
transcription inhibition activity (in words): significantly reduced inhibition activity

SMILES: N#Cc1ccc(NNC(=O)c2ccc(C#N)cc2)cc1 [compound 70587]
inhibition at 5 µM: -58%
inhibition at 10 µM: 14%

SMILES: N#Cc1ccc(NNC(=O)c2ccc(OC(F)F)cc2)c(C(F)(F)F)c1 [compound 70588]
inhibition at 5 µM: 32%
inhibition at 10 µM: 46%

IC50: 3 µM
SMILES: N#Cc1ccc(NNC(=O)c2ccc(I)cc2)c(C(F)(F)F)c1 [compound 70589]
inhibition at 5 µM: 64%
inhibition at 10 µM: 94%

IC50: 15 µM
SMILES: C=Cc1ccc(C(=O)NNc2ccc(C#N)cc2C(F)(F)F)cc1 [compound 70590]
inhibition at 5 µM: 38%
inhibition at 10 µM: 62%

IC50: 25 µM
SMILES: N#Cc1ccc(NNC(=O)c2ccc(F)cc2)c(C(F)(F)F)c1 [compound 70591]
inhibition at 5 µM: 18%
inhibition at 10 µM: 64%

IC50: 12 µM
SMILES: N#Cc1ccc(C(=O)NNc2ccc(C#N)cc2C(F)(F)F)cc1 [compound 70593]
inhibition at 5 µM: -26%
inhibition at 10 µM: 70%
transcription inhibition activity (in words): significantly more active

SMILES: CC(C)(C#N)c1ccc(C(=O)NNc2ccc(C#N)cc2C(F)(F)F)cc1 [compound 70594]
inhibition at 5 µM: 22%
inhibition at 10 µM: 10%

IC50: 12 µM
SMILES: CC(C)c1ccc(C(=O)NNc2ccc(C#N)cc2C(F)(F)F)cc1 [compound 70595]
inhibition at 5 µM: 30%
inhibition at 10 µM: 70%

IC50: 2 µM
SMILES: N#Cc1ccc(NNC(=O)c2cccc(C(F)(F)F)c2)c(C(F)(F)F)c1 [compound 70596]
inhibition at 5 µM: 96%
inhibition at 10 µM: 94%
transcription inhibition activity (in words): significantly more active

SMILES: N#Cc1ccc(NNC(=O)c2ccc(C(F)(F)F)cc2)c(C(F)(F)F)c1 [compound 70597]
inhibition at 5 µM: 26%
inhibition at 10 µM: 82%
IC50: 12 µM

IC50: 3 µM
SMILES: N#Cc1ccc(NNC(=O)c2ccc(Cl)cc2)c(C(F)(F)F)c1 [compound 70599]
inhibition at 5 µM: 96%
inhibition at 10 µM: 78%
transcription inhibition activity (in words): significantly more active

SMILES: Cc1ccc(C(=O)NNc2ccc(C#N)cc2C(F)(F)F)cc1 [compound 70600]
inhibition at 5 µM: -22%
inhibition at 10 µM: 10%

SMILES: N#Cc1ccc(NNC(=O)c2ccc(C(N)=O)cc2)c(C(F)(F)F)c1 [compound 70601]
inhibition at 5 µM: 16%
inhibition at 10 µM: -12%

SMILES: N#Cc1ccc(NNC(=O)c2ccc(Br)cc2)c(C(F)(F)F)c1 [compound 70602]
inhibition at 5 µM: 12%
inhibition at 10 µM: 48%

IC50: > 20 µM
SMILES: N#Cc1ccc(NNC(=O)c2ccccc2)c(C(F)(F)F)c1 [compound 70603]
inhibition at 5 µM: -30%
inhibition at 10 µM: -12%

SMILES: CN(C)c1ccc(C(=O)NNc2ccc(C#N)cc2C(F)(F)F)cc1 [compound 70605]
inhibition at 5 µM: -74%
inhibition at 10 µM: 26%

SMILES: CC(F)(F)c1ccc(C(=O)NNc2ccccc2C(F)(F)F)cc1 [compound 70606]
inhibition at 5 µM: 0%
inhibition at 10 µM: -10%

SMILES: CC(F)(F)c1ccc(C(=O)NNc2ccc(C#N)cc2)cc1 [compound 70607]
inhibition at 5 µM: -20%
inhibition at 10 µM: -8%

SMILES: CC(F)(F)c1ccc(C(=O)NNc2ccc(C#N)cc2C(F)(F)F)cc1 [compound 70608]
inhibition at 5 µM: -14%
inhibition at 10 µM: 38%

SMILES: O=C(NNc1ccccc1C(F)(F)F)c1ccc(F)cc1 [compound 70609]
inhibition at 5 µM: 20%
inhibition at 10 µM: 12%

IC50: > 20 µM
SMILES: O=C(NNc1ccccc1C(F)(F)F)c1ccc(C(F)(F)F)cc1 [compound 70611]
inhibition at 5 µM: -28%
inhibition at 10 µM: 4%
transcription inhibition activity (in words): significantly reduced inhibition activity

SMILES: Cc1cc(C(=O)NNc2ccc(C#N)cc2C(F)(F)F)ccc1Cl [compound 70617]
5uM corrected: 4
10 uM corrected: 96
transcription inhibition activity at 5 µM (in words): did not impart any inhibitory activity

SMILES: N#Cc1ccc(NNC(=O)c2ccc(Cl)cc2Cl)c(C(F)(F)F)c1 [compound 70624]
5uM corrected: 8
10 uM corrected: 78
transcription inhibition activity (in words): abolished inhibitory activity

SMILES: Cc1ccc(C(=O)NNc2ccc(C#N)cc2C(F)(F)F)cc1Cl [compound 70628]
5uM corrected: 8
10 uM corrected: 90
transcription inhibition activity (in words): lower transcription inhibition or no activity at all

SMILES: Cc1cc(C)cc(C(=O)NNc2ccc(C#N)cc2C(F)(F)F)c1 [compound 70651]
5uM corrected: -32
10 uM corrected: 0
transcription inhibition activity (in words): no activity

SMILES: N#Cc1ccc(NNC(=O)c2ccc(C#N)c(O)c2)c(C(F)(F)F)c1 [compound 70673]
5uM corrected: -56
10 uM corrected: -38

SMILES: N#Cc1ccc(NNC(=O)c2ccccc2Cl)c(C(F)(F)F)c1 [compound 70701]
5uM corrected: -28
10 uM corrected: 6
transcription inhibition activity (in words): declined considerably or was lost completely

SMILES: N#Cc1ccc(NNC(=O)c2ccccc2I)c(C(F)(F)F)c1 [compound 70702]
5uM corrected: -10
10 uM corrected: 10
transcription inhibition activity (in words): declined considerably or was lost completely

SMILES: N#Cc1ccc(NNC(=O)c2ccccc2F)c(C(F)(F)F)c1 [compound 70709]
5uM corrected: 0
10 uM corrected: -10
transcription inhibition activity (in words): declined considerably or was lost completely

SMILES: CS(=O)(=O)c1cc(C(=O)NNc2ccc(C#N)cc2C(F)(F)F)ccc1Cl [compound 70721]
5uM corrected: -42
10 uM corrected: 2
transcription inhibition activity at 5 µM (in words): did not impart any inhibitory activity

SMILES: N#Cc1ccc(NNC(=O)c2cccc(Br)c2)c(C(F)(F)F)c1 [compound 70754]
5uM corrected: 94
10 uM corrected: 60
transcription inhibition activity (in words): better inhibition activity

SMILES: Cc1ccc(C(=O)NNc2ccc(C#N)cc2C(F)(F)F)cc1F [compound 70765]
5uM corrected: 30
10 uM corrected: 54
transcription inhibition activity (in words): lower transcription inhibition or no activity at all

SMILES: N#Cc1ccc(NNC(=O)c2cc(F)c(F)cc2F)c(C(F)(F)F)c1 [compound 70772]
5uM corrected: 22
10 uM corrected: 94
transcription inhibition activity (in words): nullified activity
